{"source": "patent US20100286082A1", "about": "“RIBOSWITCHES AND METHODS AND COMPOSITIONS FOR USE OF AND WITH RIBOSWITCHES” (Yale University, priority 2007, published 2010)", "key": {"[1]": {"tested_on": "17-90 RNA", "assay": "Equilibrium dialysis of 3H-preQ1 with 17-90 RNA", "assay_type": "binding, Streptococcus pneumoniae R6", "settings": "excess unlabeled compound added to chamber a after equilibration", "method": "Equilibrium dialysis experiments were preformed with ^3H-preQ1 and the 17-90 RNA construct to confirm ligand binding and the specificity of molecular recognition using a different methodology. For equilibrium dialysis, ^3H-preQ1 was added to chamber a of an equilibrium dialysis apparatus, and excess RNA is added to chamber b. The two chambers are separated by a 5,000 Dalton molecular weight cut off dialysis membrane (FIG. 18A). The solutions were allowed to equilibrate and the fraction of tritium in each chamber was subsequently measured by liquid scintillation counting. […] When ^3H-preQ1 ([…]) is equilibrated without RNA, or with an RNA that lacks the ability to form the P3 stem (1-81 RNA), the ^3H label distributes evenly (b/a ˜1). […]\nA 30 μl mixture containing 50 mM Tris-HCl (pH 8.3 at 23° C.), 20 mM MgCl2, 100 mM KCl, and 1 μM of ^3H-labeled preQ1 was placed in one chamber of a DispoEquilibrium Dialyzer (ED-1, Harvard Bioscience) and the same volume containing the same constituents minus the ^3H-labeled preQ1 was added to the opposing side. When noted, the latter solution also contained either 5 μM 17-90 RNA or 5 μM 1-81 RNA. After equilibrating for 14 hours, a 5 μl aliquot was removed from each side of the apparatus to determine the distribution of ^3H-label in the two chambers by liquid scintillation counting. […]"}, "[2]": {"tested_on": "SAM-II aptamer 156 metA", "settings": "representative of SAM-II aptamers, Lim et al., 2006b; cited from earlier work"}, "[3]": {"target": "132 Sc RNA (SAM-IV riboswitch)", "assay": "In-line probing of 132 Sc RNA (SAM-IV)", "assay_type": "binding, Streptomyces coelicolor", "text": "DNA corresponding to the aptamer in the pEZ35 plasmid (above) was amplified by PCR with primers 5′-[…]"}, "[4]": {"tested_on": "SAH riboswitch of the ahcY 5′-UTR fused to lacZ (WT reporter strain)", "assay": "In vivo reporter gene expression, ahcY 5′ UTR-lacZ translational fusion", "assay_type": "cell-based, Pseudomonas syringae", "settings": "Vogel-Bonner minimal medium supplemented with 250 μM compound", "method": "An in vivo gene control assay was conducted wherein the IGR encompassing the 5′ UTR of the ahcY gene in P. syringae was fused immediately upstream of a lacZ coding sequence. This construct retained the start codon of the ahcY gene, which was fused in frame with the reporter gene ORF. The resulting translational fusion vector was transformed into P. syringae to produce the wild-type (WT) reporter strain. Similarly, a series of mutant reporter strains were constructed that are expected to disrupt or restore aptamer function (FIG. 13A). Transformed P. syringae strains subsequently were grown in either King's medium B (rich) or Vogel-Bonner medium (minimal), and the reporter expression levels of the mutant constructs were compared to the results from the WT reporter construct (FIG. 13B).\nNucleotides ˜367 to +6 relative to the predicted ahcY translation start site (GenBank accession: NC—004578.1; nucleotides 5,771,072 to 5,771,444) were amplified as a BamHI-HindIII fragment by whole-cell PCR of Pseudomonas syringae pv. tomato str. DC3000. The PCR product was cloned into the translational fusion vector pRA301 (Akakura and Winans, 2002) immediately upstream of the lacZ reporter gene. This reporter vector is stably maintained in pseudomonas since it harbors the origin of replication rep and stability region sta derived from the pseudomonas aeruginosa vector pVS1 (Itoh et al., 1984). […]"}, "[5]": {"target": "SAM-I riboswitch 124 yitJ", "assay": "SAM-I riboswitch binding (literature)", "settings": "ratio of the KD for the compound to that for SAM"}, "[6]": {"target": "68 metH RNA", "assay": "In-line probing of 68 metH RNA (SAH aptamer)", "assay_type": "binding, Dechloromonas aromatica", "settings": "in-line probing; read-out: apparent dissociation constant KD", "method": "iii. In-Line Probing Analysis In-line probing assays were carried out essentially as previously described (Soukup and Breaker, 1999). 5′^32P-labeled RNAs were incubated at room temperature for approximately 40 h in 10 μl volumes containing 50 mM Tris-HCl (pH 8.3 at 25° C.), 20 mM MgCl2, 100 mM KCl, and included test compounds at the concentrations indicated. Spontaneous cleavage products were separated by denaturing 10% PAGE, visualized using a Phosphorlmager (Molecular Dynamics), and quantified using SAFA v1.1 software (Das et al., 2005). The amount of RNA cleaved at each nucleotide position was obtained from SAFA analysis, which automatically determines reference nucleotide positions with invariant levels of spontaneous cleavage to correct for different amounts loaded in each lane. Individual band intensities at each modulated site were summed and normalized to obtain values for the fraction of RNA that was structurally modulated, assuming that there was no modulation in the absence of ligand and maximal modulation in the presence of the highest concentration of ligand. Values for the apparent dissociation constant (KD) were determined by fitting the plot of the fraction modulated (F), versus the ligand concentration, [L], at all three indicated modulation sites to the equation F [L]/([L]+KD) using SigmaPlot 9 software (Systat Software, Inc.)."}, "[7]": {"target": "SAM-I riboswitch 124 yitJ", "settings": "cited from earlier work"}, "[8]": {"tested_on": "17-90 RNA mutant U41", "assay": "In-line probing of mutant (U41) 17-90 RNA", "assay_type": "binding, Streptococcus pneumoniae R6", "settings": "compared with wild type"}, "[9]": {"tested_on": "17-90 RNA", "assay": "In-line probing of 17-90 RNA (preQ1-II aptamer)", "assay_type": "binding, Streptococcus pneumoniae R6", "settings": "compound concentrations up to 1 mM"}}}
{"compound": "Nc1nc2nc[nH]c2c(=O)[nH]1", "note": "[guanine]", "values": [{"measurement": "competition with 3H-preQ1 (distribution of 3H label)", "setting": "[1]", "value": "has no effect on the distribution of ^3H"}]}
{"compound": "Nc1ncnc2c1ncn2[C@@H]1O[C@H](CSCC[C@H](N)C(=O)O)[C@@H](O)[C@H]1O", "note": "[SAH, S-adenosylhomocysteine]", "values": [{"measurement": "discrimination against SAH", "setting": "[2]", "value": "more than 1000 fold"}, {"measurement": "Kd", "setting": "[3]; in-line probing, 132 Sc RNA, read-out: apparent dissociation constant (KD)", "value": 20000, "unit": "nM"}, {"measurement": "KD [compound]/ KD [SAM] SAM-IV", "setting": "[3]; ratio of the KD for the compound to that for SAM", "value": 133}, {"measurement": "riboswitch-mediated reporter expression", "setting": "[4]", "value": "only slightly increases reporter expression"}, {"measurement": "KD [compound]/ KD [SAM] SAM-I", "setting": "[5]", "value": 80}, {"measurement": "Kd", "setting": "[6]", "value": "~20", "unit": "nM"}, {"measurement": "Kd", "setting": "[7]; calculated previously (Lim et al. 2006), read-out: KD [compound] (nM) SAM-I", "value": 400, "unit": "nM"}, {"measurement": "discrimination against SAH", "setting": "[7]; representative of SAM-I aptamers, Lim et al., 2006b", "value": "~80", "unit": "fold"}]}
{"compound": "Nc1nc(N)c2[nH]cnc2n1", "note": "[DAP, 2,6-diaminopurine]", "values": [{"measurement": "binding by the U41 mutant", "setting": "[8]", "value": "essentially the same affinity as wild type"}, {"measurement": "binding by 17-90 RNA", "setting": "[9]", "value": "near identical KD values"}]}
